From US20220056043A1, “NITROGEN-CONTAINING FUSED CYCLIC COMPOUND, PREPARATION METHOD THEREFOR AND USE THEREOF” (SICHUAN KELUN-BIOTECH BIOPHARMACEUTICAL CO., LTD., priority 2019, published 2022)

How the values were obtained:
THP1-defNLRP3 cells = experiment: Agonistic effect on the expression of IL-1β in NLRP3 deficient THP1 cells (THP1-defNLRP3) after PMA-induced differentiation (HTRF); assay type: cell-based, human; conditions: Homo sapiens, THP-1; IL-1β level, PMA-differentiated NLRP3 deficient THP1 cells, 6 hours; highest test concentration 30 μM; read-out: hNLRP3 EC50 (μM) (THP-1defNLRP3)
Source text: Experimental Example 2: Agonistic Effect of the Compound of the Invention on the Expression of IL-1β in NLRP3 Deficient THP1 Cells (THP1-defNLRP3 Cells) after PMA-Induced Differentiation
In this test, a HTRF detection method was used to test the effect of the compound of the invention on the level of IL-1β in THP1-defNLRP3 cells to evaluate the specificity of the agonistic effect of the compound on hNLRP3 inflammasome or hNLRP3 inflammasome pathway.
Reagents: as described in Experimental Example 1
Cell: THP1-defNLRP3 (InvivoGen)
Kit: IL-1β assay kit (CISBIO)
1) THP1-defNLRP3 cells in a logarithmic growth phase were seeded in a T75 culture flask at a density of 5×10^5 cells/well, and cultured in a cell incubator at 37° C., 5% CO2 for 24 hours, and then 1 μM PMA was used to induce THP1-defNLRP3 suspension cells to become adherent macrophages. The medium was RPMI 1640 containing 10% heat-inactivated FBS and 0.05 mM β-mercaptoethanol.
2) The cells were induced and cultured for 24 hours. Then the adherent cells were trypsinized and centrifuged at 1000 rpm for 5 min. The supernatant was removed, and the cells were resuspended to a density of 2×10^6 cells/mL in RPMI 1640 medium containing 2% heat-inactivated FBS. 50 μL/well of the cell resuspension was taken and spread on a 96-well plate such that the number of cells in each well was 1×10^5.
3) An appropriate amount of 10 mM DMSO solution of the compound to be tested was taken and diluted to a concentration of 2× test concentration with RPMI 1640 medium containing 2% heat-inactivated FBS. 50 μL/well of the dilution was added to the cells in the 96-well plate, and mixed well. The plate was incubated in a cell incubator at 37° C., 5% CO2 for 6 hours. The supernatant was collected, and the level of IL-1β was measured in accordance with the instructions of the IL-1β detection kit.
4) EC50 was fitted by the GraphPad software log(agonist) vs. response—Variable slope four-parameter method.

hTLR8 = biological target: T1, hTLR8 (Homo sapiens, UniProt Q9NR97); experiment: Agonistic effect on hTLR8, HEK-Blue hTLR8 cells, alkaline phosphatase secretion; assay type: cell-based; conditions: 16 hours
T1 construct: host or cells: HEK-Blue hTLR8 cells
T1 sequence (Q9NR97 27-1041): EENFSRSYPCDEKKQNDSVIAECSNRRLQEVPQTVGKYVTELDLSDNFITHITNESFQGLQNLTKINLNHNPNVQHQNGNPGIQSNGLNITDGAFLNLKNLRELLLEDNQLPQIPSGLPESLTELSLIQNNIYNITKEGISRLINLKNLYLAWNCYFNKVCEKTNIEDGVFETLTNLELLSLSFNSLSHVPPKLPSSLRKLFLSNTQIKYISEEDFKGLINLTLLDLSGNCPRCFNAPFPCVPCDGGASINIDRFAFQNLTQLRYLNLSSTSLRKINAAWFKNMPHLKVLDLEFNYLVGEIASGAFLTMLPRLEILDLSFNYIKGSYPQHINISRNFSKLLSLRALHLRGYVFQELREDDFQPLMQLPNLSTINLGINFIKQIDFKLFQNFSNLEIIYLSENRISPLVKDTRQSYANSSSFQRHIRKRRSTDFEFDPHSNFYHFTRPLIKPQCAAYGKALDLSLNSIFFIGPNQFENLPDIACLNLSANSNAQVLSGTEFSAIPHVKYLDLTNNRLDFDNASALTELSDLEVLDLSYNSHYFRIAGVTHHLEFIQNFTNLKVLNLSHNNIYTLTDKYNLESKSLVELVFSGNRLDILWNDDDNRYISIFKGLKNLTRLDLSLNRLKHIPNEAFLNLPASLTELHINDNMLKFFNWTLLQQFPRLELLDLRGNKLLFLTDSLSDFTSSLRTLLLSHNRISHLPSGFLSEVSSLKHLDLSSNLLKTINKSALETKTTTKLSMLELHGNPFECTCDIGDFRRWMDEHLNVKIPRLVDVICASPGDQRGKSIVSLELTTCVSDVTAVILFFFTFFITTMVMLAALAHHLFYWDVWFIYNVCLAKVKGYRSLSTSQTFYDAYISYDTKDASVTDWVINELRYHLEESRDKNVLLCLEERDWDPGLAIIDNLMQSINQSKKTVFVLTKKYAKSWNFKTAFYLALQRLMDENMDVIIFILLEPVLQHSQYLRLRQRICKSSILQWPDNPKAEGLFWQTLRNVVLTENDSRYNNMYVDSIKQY
Procedure: Experimental Example 4: Agonistic Effect of the Compound of the Invention on hTLR8
In this test, the secretion of alkaline phosphatase in HEK-Blue cells was measured to test the activating effect of the compound of the invention on TLR8 signaling pathway, so as to evaluate the specificity of the agonistic effect of the compound on NLRP3 pathway.
Reagents: DMEM (High glucose); FBS (fetal bovine serum) (Gibco); QUANTI-Blue/InvivoGen/rep-qb2
Cells: HEK-Blue™ hTLR8 cells (human TLR 8 cells) (InvivoGen) Experimental Procedures:
1) The HEK-Blue™ hTLR8 cells in a logarithmic growth phase were trypsinized and resuspended in the medium to a concentration of 2×10^6 cells/mL. 50 μL/well of the cell suspension was added to a 96-well plate. An appropriate amount of 10 mM DMSO solution of the compound to be tested was taken and diluted to a concentration of 2× test concentration with the medium. 50 μL/well was added to the cells in the 96-well plate. The plate was incubated in an incubator at 37° C. and 5% CO2 for 16 hours. The medium was DMEM (High glucose) containing 10% FBS. 2) After the cell incubation, 10 μL of cell culture supernatant was transferred to a 96-well plate. 90 μL/well of QUANTI-Blue detection solution was added, and the mixture was incubated at 37° C. for 3 hours. OD620 was read using a microplate reader.
3) The EC50 of the effect of the tested compound to stimulate hTLR8 was fitted by the GraphPad software log(agonist) vs. response—Variable slope four-parameter method.

Compound | EC50 (THP1-defNLRP3 cells) [µM] | EC50 (hTLR8) [µM]
CCC(CC)Nc1cc(N)nc2cc(-c3ccn[nH]3)sc12 [Compound 113, N^7-(pent-3-yl)-2-(1H-pyrazol-5-yl)thieno[3,2-b]pyridine-5,7-diamine] | > 30 | > 100
Nc1cc(NC2CCC(O)CC2)c2sc(-c3ccn[nH]3)cc2n1 (centres unmarked) [Compound 114, 4-((5-amino-2-(1H-pyrazol-5-yl)thieno[3,2-b]pyridin-7-yl)amino)-1-cyclohexanol] | > 30 | > 100
CC(C)(CO)CNc1cc(N)nc2cc(-c3ccn[nH]3)sc12 [Compound 115, 3-((5-amino-2-(1H-pyrazol-5-yl)thieno[3,2-b]pyridin-7-yl)amino)-2,2-dimethyl-1-propanol] | > 30 | > 100
Nc1cc(NCC(F)F)c2sc(-c3ccn[nH]3)cc2n1 [Compound 116, N^7-(2,2-difluoroethyl)-2-(1H-pyrazol-5-yl)thieno[3,2-b]pyridine-5,7-diamine] | > 30 | > 100
C[C@@H]1CN(CCNc2cc(N)nc3cc(-c4ccn[nH]4)sc23)C[C@H](C)O1 [Compound 117, N^7-(2-((2S,6R)-2,6-dimethylmorpholino)ethyl)-2-(1H-pyrazol-5-yl)thieno[3,2-b]pyridine-5,7-diamine] | > 30 | > 100
N#CC1(CNc2cc(N)nc3cc(-c4ccn[nH]4)sc23)CC1 [Compound 119] | > 30 | > 100
Nc1cc(NCC2CCOCC2)c2sc(-c3ccn[nH]3)cc2n1 [Compound 120, 2-(1H-pyrazol-5-yl)-N^7-((tetrahydro-2H-pyran-4-yl)methyl)thieno[3,2-b]pyridine-5,7-diamine] | > 30 | > 100
CC1(CNc2cc(N)nc3cc(-c4ccn[nH]4)sc23)COC1 [Compound 121, N^7-((3-methyloxetan-3-yl)methyl)-2-(1H-pyrazol-5-yl)thieno[3,2-b]pyridine-5,7-diamine] | > 30 | > 100
CC(CO)(CO)CNc1cc(N)nc2cc(-c3ccn[nH]3)sc12 [Compound 122] | > 30 | > 100
Cc1c(-c2cc[nH]n2)sc2c(NCCN3CCOCC3)cc(N)nc12 [Compound 153] | > 30 | > 100
Cc1c(-c2cc[nH]n2)sc2c(NCC3CC3)cc(N)nc12 [Compound 156] | > 30 | > 100
Cc1c(-c2ccn[nH]2)sc2c(NC[C@@H]3CCCO3)cc(N)nc12 [Compound 157] | > 30 | > 100
Cc1c(-c2cc[nH]n2)sc2c(NCCCO)cc(N)nc12 [Compound 159] | > 30 | > 100
Nc1cc(N2CCN(C3CCCC3)CC2)c2sc(-c3ccn[nH]3)cc2n1 [Compound 160] | > 30 | > 100
CN1CCN(c2cc(N)nc3cc(-c4ccn[nH]4)sc23)CC1 [Compound 161] | > 30 | > 100
CC(C)N1CCN(c2cc(N)nc3cc(-c4ccn[nH]4)sc23)CC1 [Compound 162] | > 30 | > 100

Compound | EC50 (THP1-defNLRP3 cells) [µM] | EC50 (hTLR8) [µM]
Nc1cc(N2CCN(C3CC3)CC2)c2sc(-c3ccn[nH]3)cc2n1 [Compound 163] | > 30 | > 100
CS(=O)(=O)N1CCN(c2cc(N)nc3cc(-c4ccn[nH]4)sc23)CC1 [Compound 164] | > 30 | > 100
COC1(C)CCN(c2cc(N)nc3cc(-c4ccn[nH]4)sc23)CC1 [Compound 165] | > 30 | > 100
Nc1cc(N2CCCC(O)C2)c2sc(-c3ccn[nH]3)cc2n1 (centres unmarked) [Compound 166] | > 30 | > 100
Nc1cc(N2CCN(C3CCCCC3)CC2)c2sc(-c3ccn[nH]3)cc2n1 [Compound 167] | > 30 | > 100
C[C@H]1CN(c2cc(N)nc3cc(-c4ccn[nH]4)sc23)C[C@H](C)O1 [Compound 168] | > 30 | > 100
C[C@@H]1CN(c2cc(N)nc3cc(-c4ccn[nH]4)sc23)C[C@H](C)O1 [Compound 169] | > 30 | > 100
Nc1cc(N2CCOCC2)c2sc(-c3ccn[nH]3)cc2n1 [Compound 170] | > 30 | > 100
CC1(C)CN(c2cc(N)nc3cc(-c4ccn[nH]4)sc23)CCO1 [Compound 171] | > 30 | > 100
Nc1cc(N2CCC(O)CC2)c2sc(-c3ccn[nH]3)cc2n1 [Compound 172] | > 30 | > 100
CC1(C)CCN(c2cc(N)nc3cc(-c4ccn[nH]4)sc23)CC1 [Compound 173] | > 30 | > 100
Nc1cc(N2CCN(c3ccccc3)CC2)c2sc(-c3ccn[nH]3)cc2n1 [Compound 174] | > 30 | > 100
Nc1cc(N2CCNCC2)c2sc(-c3ccn[nH]3)cc2n1 [Compound 175] | > 30 | > 100
Nc1cc(N2CC3CC(C2)N3)c2sc(-c3ccn[nH]3)cc2n1 [Compound 176] | > 30 | > 100
C[C@@H]1COCCN1c1cc(N)nc2cc(-c3ccn[nH]3)sc12 [Compound 177] | > 30 | > 100
